68 molecules from ChEMBL document CHEMBL3507680, “University of Dundee, Gates Library screen for HepG2 cell viability” can be followed below.

The series can be described thus: Human HepG2 cell viability assay in 384 well format. Type of series: toxicity, cell-based. Set-up: dose 125 nL, time 70.5 hour; cytotoxicity at 70.5 h: concentration not given beside the values. The note with it: HepG2 cells, read-out: Inhibition.
As to `Cn1cc(-c2ncnc3c2CCN(C(=O)c2cnccn2)CC3)cn1`, the cytotoxicity at 70.5 h came out at 1.04%.
Then `Cc1noc(C2CCC3(CCN(C(=O)c4cc(C5CC5)on4)CC3)O2)n1` (stereo not drawn), with -0.565%; and `O=C1CCCN1Cc1ncn2c1CN(C(=O)Cc1cccs1)CCC2`, with -1.17%.
In the case of `CCn1ncc2c1C(COC)CN(Cc1nccs1)C2` (stereo not drawn), the cytotoxicity at 70.5 h came out at 30.6%.
`CCOCC1CN(Cc2ccsc2)Cc2cnn(C)c21` (stereo not drawn): the cytotoxicity at 70.5 h was -0.486%.
For the molecule `CCn1ncc2c1C(COC)CN(Cc1ccco1)C2` (stereo not drawn), the cytotoxicity at 70.5 h was determined as 3.48%.
Turning to `CNC(=O)[C@@]12CCC3(CCN(C(=O)COC)CC3)[C@@H]1CN(S(C)(=O)=O)C2`, the cytotoxicity at 70.5 h is 4.47%.
Regarding `COCc1ncn2c1CN(C(=O)c1ccco1)CC2`, the cytotoxicity at 70.5 h stood at 1.28%.
As to `COCCO[C@H]1CCN(Cc2cnn(C)c2)[C@H]1Cc1cccnc1`, the cytotoxicity at 70.5 h is -3.42%.
Regarding `COCCO[C@H]1CCN(Cc2ccoc2)[C@H]1Cc1cccnc1`, the cytotoxicity at 70.5 h was -0.128%.
For the molecule `CCc1ccc(S(=O)(=O)N2CCCC3(CCCN3S(C)(=O)=O)C2)cc1` (stereo not drawn), the cytotoxicity at 70.5 h turned out to be 22.3%.
Regarding `COCc1ncn2c1CN(C(=O)c1cnc3ccccc3c1)CC2`, the cytotoxicity at 70.5 h turned out to be 1.48%.
With `Cn1ncc2c1C(COCC1CC1)CN(Cc1ccsc1)C2` (stereo not drawn), the cytotoxicity at 70.5 h came to 2.88%.
As for `CS(=O)(=O)N1CCCC12CCCN(S(=O)(=O)c1ccc(F)c(F)c1)C2` (stereo not drawn), the cytotoxicity at 70.5 h was 2.95%.
To `CC(C)c1ccc(S(=O)(=O)N2CCCC3(CCCN3S(C)(=O)=O)C2)cc1` (stereo not drawn) belongs 39.5%.
For `O=C(C1CC1)N1CCC2(COCc3cnc(NCc4ccco4)nc32)C1` (stereo not drawn), the cytotoxicity at 70.5 h is -2.45%.
`O=C1CC2(CCN(c3nncs3)C2)CN1c1ccc2c(c1)OCCO2` (stereo not drawn): the cytotoxicity at 70.5 h was -1.06%.
Turning to `Cc1cccc(N2CC3(CCN(c4nncs4)C3)CC2=O)c1` (stereo not drawn), the cytotoxicity at 70.5 h was -4.91%.
Regarding `CO[C@H]1CN(C(=O)c2ccc[nH]2)[C@@H]2COC[C@H]12`, the cytotoxicity at 70.5 h was -2.94%.
As to `O=C(NCC1CCN(C(=O)c2ccoc2)CC1)c1ccccc1Br`, the cytotoxicity at 70.5 h is -0.695%.
As for `O=S(=O)(c1ccccc1)N1CCN(CCn2ccnc2)CC1`, the cytotoxicity at 70.5 h came to 1.34%.
`O=S(=O)(c1cccnc1)N1CCN(CCn2ccnc2)CC1`: the cytotoxicity at 70.5 h is -0.387%.
For the molecule `COc1ccccc1NC(=O)NCC(O)(c1ccccc1)C1CC1` (stereo not drawn), the cytotoxicity at 70.5 h came to 20.2%.
Regarding `Cc1ccc(NC(=O)Nc2cnc(N3CCN(C)CC3)nc2)c(Cl)c1`, the cytotoxicity at 70.5 h stood at 3.18%.
For the molecule `NC(=O)c1nnn(-c2ccc(Br)cc2)n1`, the cytotoxicity at 70.5 h stood at 33.2%.
For `Cn1c(C(F)(F)F)nn(CCNC(=O)CSCc2ccccc2)c1=O`, the cytotoxicity at 70.5 h turned out to be 0.995%.
Regarding `O=C1CCSCC(C(=O)N2CCOCC2)N1` (stereo not drawn), the cytotoxicity at 70.5 h turned out to be 0.753%.
Consider `CCOC(=O)CCC(=O)N1CCC(Oc2ccc(C(F)(F)F)cn2)CC1`, for which the cytotoxicity at 70.5 h was -4.1%.
To `CC(=O)N1CCC(Oc2ccc(C#N)cn2)CC1` belongs -3.09%.
With `CN(C)S(=O)(=O)N1CCC(Oc2ccc(C#N)cn2)CC1`, the cytotoxicity at 70.5 h was -1.45%.
Then `COC(=O)c1sccc1S(=O)(=O)N1CCC(Oc2cccnn2)CC1`, with -3.46%; and `COc1ncc(NC(=O)Nc2cc(C)ccc2OC)cn1`, with 39.1%; and `CN(C)CC1CSCCCN1C(=O)Nc1ccc(C(C)(C)C)cc1` (stereo not drawn), with 5.94%.
In the case of `Cc1cnc2n(c1=O)CC(C(=O)Nc1ccccc1Cl)CS2` (stereo not drawn), the cytotoxicity at 70.5 h was -5%.
As to `CCc1c(C)nc2n(c1=O)CC(C(=O)Nc1nc3c(s1)CCCC3)CS2` (stereo not drawn), the cytotoxicity at 70.5 h worked out at 12.5%.
`CCc1c(C)nc2n(c1=O)CC(C(=O)Nc1ccccc1F)CS2` (stereo not drawn): the cytotoxicity at 70.5 h was 20.5%.
To `COCCN(Cc1ccoc1)C(=O)c1cccnc1SC` belongs -0.295%.
Consider `Cn1cc(C(=O)Nc2ccc3c(c2)CN(C(=O)c2ccco2)CC3)nn1`, for which the cytotoxicity at 70.5 h is -4.02%.
Then `O=C(NCCn1ccc(-c2ccncc2)n1)c1ccncc1`, with -2.74%.
Regarding `O=C(NCCn1ccc(-c2ccccn2)n1)C1CC1`, the cytotoxicity at 70.5 h was -4.52%.
Regarding `Cn1nc(CNC(=O)c2ccc(Cl)cc2)c2c1CCOC2`, the cytotoxicity at 70.5 h amounted to 3.98%.
To `Cn1nc(CNC(=O)NCc2ccc(Cl)cc2)c2c1CCOC2` belongs -0.247%; to `Cn1nc(CNC(=O)C2COc3ccccc3O2)cc1C1CC1` (stereo not drawn), 6.17%; to `Cn1cnnc1S(=O)(=O)C1CCN(S(=O)(=O)c2ccc(F)c(Cl)c2)CC1`, -5.73%.
Turning to `CN(C)C(=O)N1CCC2(CCCN(c3ncccn3)C2)C1` (stereo not drawn), the cytotoxicity at 70.5 h stood at 5.18%.
To `CC(C)N1CCC2(CC1)CC(NS(C)(=O)=O)c1ccccc1O2` (stereo not drawn) belongs 4.16%; to `Cc1ccsc1CN1C[C@@H]2COC[C@]2(COCC(=O)N(C)C)C1`, -0.655%.
For `CN(C)C(=O)COC[C@]12COC[C@H]1CN(CCc1ccccc1)C2`, the cytotoxicity at 70.5 h was -1.91%.
For the molecule `COCc1ncn2c1CN(C(=O)c1cccc3cccnc13)CC2`, the cytotoxicity at 70.5 h worked out at 19.6%.
To `CC(C)NC(=O)c1ccc2c(c1)C1(CCN(C(C)C)CC1)C(=O)N2` belongs 0.266%.
Take `CC(C)COC[C@@H]1CC[C@H]2[C@H](CCN2C(=O)c2ccncc2F)O1`: the cytotoxicity at 70.5 h came to 1.98%.
In the case of `CCN1CCC2(CC1)C(=O)Nc1ccc(C(=O)NC)cc12`, the cytotoxicity at 70.5 h came to 4.51%.
As for `CS(=O)(=O)NC1CC2(CCN(CC3CC3)CC2)Oc2ccccc21` (stereo not drawn), the cytotoxicity at 70.5 h came to 1.75%.
Regarding `CNC(=O)c1ccc2c(c1)C1(CCN(CCOC)CC1)C(=O)N2`, the cytotoxicity at 70.5 h is 0.0675%.
Turning to `O=c1ccc2c([nH]1)CCC(NCc1ccc3c(c1)OCO3)C2` (stereo not drawn), the cytotoxicity at 70.5 h is -1.6%.
With `Cc1ccc(CN2C[C@@H]3[C@@H](C(=O)NCC(C)C)CCS(=O)(=O)[C@@H]3C2)cc1`, the cytotoxicity at 70.5 h is -1.42%.
To `CN(C)CCn1c2c(ccc1=O)CCN(C(=O)c1cccs1)CC2` belongs -5.63%.
Then `Cc1ccc(C(=O)N2CCc3ccc(=O)n(CCN(C)C)c3CC2)o1`, with -4.04%.
Turning to `CNC(=O)CN1CC[C@H]2CN(C(=O)c3ccc(C)cc3)C[C@H]2C1`, the cytotoxicity at 70.5 h was -4.71%.
Regarding `Cc1ccc(CN2C[C@@H]3[C@@H](C(=O)NCC4CC4)CCS(=O)(=O)[C@@H]3C2)cc1`, the cytotoxicity at 70.5 h was -1.55%.
Take `Cc1cccc(CN2C[C@@H]3[C@@H](C(=O)NCC(C)C)CCS(=O)(=O)[C@@H]3C2)c1`: the cytotoxicity at 70.5 h is -6.13%.
Then `Cn1ccnc1C(=O)NCc1cnc2n1CCN(CC1CC1)CC2`, with -0.996%; and `CN1CCc2cc(C(=O)N(C)C)c(NCC3CC3)nc2CC1`, with -1.63%.
For the molecule `Cc1nc(CN2CC[C@@H](OCC3CC3)[C@@H]2Cc2cccnc2)cs1`, the cytotoxicity at 70.5 h is -0.893%.
On to `Cc1ccc(N[C@@H]2CN(Cc3cc(C)on3)C[C@@H]3CCCO[C@@H]32)nn1`, for which the cytotoxicity at 70.5 h was 2.24%.
Turning to `O=C(C1CC1)N1CC[C@@H]2[C@H](CC1)N(Cc1cccnc1)CCS2(=O)=O`, the cytotoxicity at 70.5 h was -2.85%.
Take `CN(C)CCOCC1CN(Cc2ccncc2)Cc2nnn(C)c21` (stereo not drawn): the cytotoxicity at 70.5 h is 1.9%.
Take `CN(C)CCN1CCN(Cc2cccc(C#N)c2)Cc2cccnc21`: the cytotoxicity at 70.5 h is -2.4%.
